Measured values taken from patent US20260284066A1, “TYK2 INHIBITORS AND COMPOSITIONS AND METHODS THEREOF” (LYNK PHARMACEUTICALS CO. LTD., priority 2023, published 2026).
Values after ≈ are worked out from the molar mass of the structure shown.

Experiments:
[1] = target: T1, TYK2-JH2 domain (Homo sapiens, UniProt P29597); experiment: Binding activity test for TYK2 JH2 domain (Tb-antibody/tracer FRET); conditions: for JAK1/TYK2 selectivity: ratio of JAK1 JH2 to TYK2 JH2 binding IC50; for IC50: read-out: TYK2 JH2 Binding IC50
T1 construct: JAK1-JH2 domain or TYK2-JH2 domain enzyme
Experimental: Binding Activity test for JH2 domain of JAK and TYK2
75 nL DMSO for high control and low control.
For low control, add 5 μL/well assay buffer. […] After enzyme system prepared, add 5 μL of Tb-antibody solution into each wells of assay plate. […] After Tb-antibody added, also add 5 μL of tracer into the assay plate. […] Incubate for 60 mins at 25° C. firstly and then continue to incubate the plate at 4° C. overnight. Read by envision in FRET mode. The Luminescence value was recorded by a multi-label reader Envision (PerkinElmer). Inhibition Rate was calculated relative to vehicle (DMSO) treated control wells using following formula:
wherein • RLU_compound=the relative light unit of cells treated with test compounds • RLU_low control=the relative light unit of medium with DMSO only • RLU_high control=the relative light unit of cells treated with DMSO only

[2] = target: T2, JAK1-JH2 domain (Homo sapiens, UniProt P23458); experiment: Binding activity test for JAK1 JH2 domain (Tb-antibody/tracer FRET); conditions: read-out: JAK1 JH2 Binding IC50
T2 construct: JAK1-JH2 domain or TYK2-JH2 domain enzyme

[3] = target: T3, JAK1 (Homo sapiens, UniProt P23458); experiment: JAK1 kinase activity, microfluidic assay (Caliper); type: biochemical; conditions: JAK1 10 nM, 1 mM ATP
T3 construct: purchased Carna Biosciences
Experimental: (§1) Testing for JAK1, JAK2 and TYK2 Kinase Activities
(§2) JAK activity was determined in the reaction buffer 50 mM HEPES, 0.01% Brij35, 10 mM MgCl2, 2 mM DTT by a microfluidic assay. The phosphorylation of a FAM labeled peptide substrate was monitored in the Caliper EZ Reader II (Perkin Elmer). The assay condition for each batch of enzyme (Carna Biosciences) was optimized to obtain 10% conversion rate of peptide substrate.
(§3) The test compounds were dissolved in DMSO to a stock concentration of 10 mM. Three-fold serially diluted compounds with top concentration of 5 μM were pre-incubated with JAK1, JAK2 or TYK2 for 10 min at ambient temperature. The final DMSO concentration of assay mixture was 1%. […] The reaction was stopped by adding 50 mM EDTA.
(§4) And the well without compound but with equivalent DMSO was defined as no inhibition. The percent inhibition was calculated by the following formula:
(§5) wherein • Conversion %_max=the conversion rate in the positive well without addition of compound • Conversion %_sample=the conversion rate of test compounds • Conversion %_min=the conversion rate in the well without addition of enzyme
(§6) The dose-response (percent inhibition) curve was plotted and IC50 values were determined by GraphPad software. The IC50 values of tested compounds were list in Table 3.

[4] = target: T4, JAK2 (Homo sapiens, UniProt O60674); experiment: JAK2 kinase activity, microfluidic assay (Caliper); type: biochemical; conditions: JAK2 1.5 nM, 1 mM ATP
T4 construct: purchased Carna Biosciences
Experimental: as §1, §2, §3, §4, §5, §6

[5] = target: T5, TYK2 (Homo sapiens, UniProt P29597); experiment: TYK2 kinase activity, microfluidic assay (Caliper); type: biochemical; conditions: TYK2 20 nM, 1 mM ATP
T5 construct: purchased Carna Biosciences
T5 sequence (P29597 897-1176 limits assumed): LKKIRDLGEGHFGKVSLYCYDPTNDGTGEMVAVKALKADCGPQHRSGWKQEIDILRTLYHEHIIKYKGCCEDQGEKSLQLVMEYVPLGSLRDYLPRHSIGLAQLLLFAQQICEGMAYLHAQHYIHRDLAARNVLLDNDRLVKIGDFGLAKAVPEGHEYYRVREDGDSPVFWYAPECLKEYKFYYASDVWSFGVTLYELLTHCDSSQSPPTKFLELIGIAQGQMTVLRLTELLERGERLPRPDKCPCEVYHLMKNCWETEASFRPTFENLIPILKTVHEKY
Experimental: as §1, §2, §3, §4, §5, §6

[6] = tested on: TYK2 pathway; experiment: IFN-γ release in NK92 cells stimulated by IL-12 (ELISA); type: cell-based; conditions: Homo sapiens, IL-12 2.5 ng/mL
From the text: IFN-γ Release in NK92 Cells Stimulated by IL-12
Purpose: To evaluate the inhibition activity of TYK2 inhibitors in NK92 cells on TYK2 pathway through ELISA method.

[7] = tested on: pSTAT1; experiment: Phosphorylation inhibition of STAT in human whole blood (IFN-alpha stimulated, flow cytometry); type: cell-based; conditions: T-cell, CD3+ T cells, read-out: pSTAT1 inhibition in hWB (IC50)
Experimental: Phosphorylation Inhibition of STAT in Human Whole Blood Testing: The inhibitory potential of test articles in human whole blood assay was evaluated by the method of flow cytometry. IFN-alpha will activate JAK1 and TYK2 kinase in T cells by binding to IFN receptors, and then lead to phosphorylation of STAT1 and STAT2. The phosphorylated STAT1 enter nuclear and promote transcription and expression of IFN-gamma. To evaluate the efficacy of TYK2i in T cells, freshly collected human whole blood will be stimulated with certain unit of human IFN-alpha (Universal Type I IFN (1MU), R&D, 11200-2) for 20 mins in incubator. After stimulation, fix cells with PhosflowTM Fix Buffer I (BD, 557870), and then collect fixed cells by centrifugation (500 g, 8 min). Wash cells once with pre-cooled PBS, and then permeabilize cells with cold Perm Buffer III buffer (BD, 558050) for 45 mins on ice. Collect cells by centrifugation (600 g, 8 min) and washed twice with cold PBS. Stain cells with anti-human CD3(FITC Mouse Anti-Human CD3, BD, 555332) and anti-pSTAT1_Y701 (Alexa Fluor 647 Mouse Anti-Stat1 ([…]), BD, 612597) antibodies. Detect pSTAT1 by flow cytometry (CytoFlex S) and analyze data with FlowJo and GraphPad Prism 8 software. IC50 values of test articles were determined using 4-parameter logistic equation.

[8] = Kinetic solubility; type: physicochemical; conditions: aqueous buffer, 100 mM pH 7.4 phosphate buffer, 1% DMSO, room temperature, read-out: Kinetics Solubility_PBS7.4
Experimental: Aliquots of 8 μL of reference and test compound stock solutions (10 mM/5 mM) are added into 792 μL of 100 mM pH 7.4 phosphate buffer. The final DMSO concentration is 1%. Sample tubes are shaken for 2 hours at 1000 rpm at room temperature. Samples are centrifuged at 12000 rpm for 10 min to precipitate un-dissolved particles. And transfer the supernatants to a new tube or plate. Add 5 μL of samples (no diluted, 10 times diluted and 100 times diluted) and standard curve samples to 95 μL of ACN containing IS for LC-MS/MS analysis.

[9] = Microsomal metabolic stability assay; type: in vitro ADME, human; conditions: human, liver microsomes, pH 7.4, human liver microsomes 0.5 mg/mL
Experimental: Microsomal Metabolic Stability Assay
Microsomes were pre-incubated with test compound or control compounds for 5 min at 37° C. in 100 mM potassium phosphate buffer, pH 7.4, 1.0 mM EDTA. The reaction was initiated by addition of 15 μL of the NADPH regenerating system to 30 μL of each incubation mixture per time point. The final incubation condition was composed of 0.5 mg/mL microsomal protein, 1 μM test article/positive control, 2 mM NADPH. The 0-minute samples were prepared by addition of a 30 μL aliquot of each incubation mixture to 135 μL quench reagent to precipitate proteins. And then a 15 μL aliquot of the NADPH regenerating system was added. At 5, 15, 30 and 45 minutes, the reaction will be stopped by the addition of cold acetonitrile solution containing internal standard. The samples taken at all time points were centrifuged at 5000×g for 15 minutes. 50 μL of supernatant are taken into 96-well assay plates pre-added with 50 μL ultrapure water, and then analyzed by LC/MS/MS.
Concentrations of test articles, control compounds in the samples were determined by using LC/MS/MS method. Plotting of the chromatograms and peak area integrations are carried out by Analyst (AB Sciex).
In the determination of the in vitro elimination constant (ke) of the control compounds, the analyte/internal standard peak area ratios will be converted to percentage remaining (% Remaining) with the following equation:
The CLint of microsomes was calculated using the formula: CLint (mic)=0.693/T1/2/mg microsome protein per mL. The slope was measured by the natural logarithm of the percentage of the residual compound and time, T1/2 was calculated according to the following formula.

T3 sequence (P23458 875-1153 limits assumed): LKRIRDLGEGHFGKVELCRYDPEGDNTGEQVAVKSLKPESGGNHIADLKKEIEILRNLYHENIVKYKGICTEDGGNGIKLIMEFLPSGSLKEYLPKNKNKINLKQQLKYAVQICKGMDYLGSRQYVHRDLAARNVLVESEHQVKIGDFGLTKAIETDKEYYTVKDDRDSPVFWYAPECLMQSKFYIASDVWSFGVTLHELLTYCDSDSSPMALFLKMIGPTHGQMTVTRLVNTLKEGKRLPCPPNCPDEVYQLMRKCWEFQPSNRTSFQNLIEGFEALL
T2 sequence (P23458 583-855 limits assumed): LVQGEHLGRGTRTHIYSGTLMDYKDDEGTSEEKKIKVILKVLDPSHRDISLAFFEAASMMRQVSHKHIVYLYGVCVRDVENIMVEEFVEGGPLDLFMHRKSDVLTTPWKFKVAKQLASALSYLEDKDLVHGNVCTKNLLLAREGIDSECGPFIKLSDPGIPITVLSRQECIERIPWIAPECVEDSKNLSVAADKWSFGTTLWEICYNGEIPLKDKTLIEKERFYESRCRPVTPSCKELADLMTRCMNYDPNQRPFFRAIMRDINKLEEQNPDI
T1 sequence (P29597 589-875 limits assumed): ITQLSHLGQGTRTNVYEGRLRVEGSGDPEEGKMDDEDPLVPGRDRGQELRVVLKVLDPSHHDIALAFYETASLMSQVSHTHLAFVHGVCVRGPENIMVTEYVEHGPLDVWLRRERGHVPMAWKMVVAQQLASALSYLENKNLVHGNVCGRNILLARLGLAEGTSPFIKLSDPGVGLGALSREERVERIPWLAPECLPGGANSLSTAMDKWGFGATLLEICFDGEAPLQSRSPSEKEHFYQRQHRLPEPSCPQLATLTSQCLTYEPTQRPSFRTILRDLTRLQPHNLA
T4 sequence (O60674 849-1124 limits assumed): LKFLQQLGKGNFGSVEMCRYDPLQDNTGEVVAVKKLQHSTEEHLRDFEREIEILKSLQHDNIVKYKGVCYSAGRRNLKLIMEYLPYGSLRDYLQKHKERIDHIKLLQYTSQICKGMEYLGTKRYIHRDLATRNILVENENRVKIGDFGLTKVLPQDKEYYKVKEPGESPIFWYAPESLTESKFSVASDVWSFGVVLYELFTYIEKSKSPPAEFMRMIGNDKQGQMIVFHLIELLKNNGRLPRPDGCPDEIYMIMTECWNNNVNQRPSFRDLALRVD

## [2H]C([2H])([2H])NC(=O)c1cnc(Nc2ccc(N3CCOCC3)cn2)cc1Nc1ccc2cnn(CC(C)(F)F)c2c1OC [Example 4, 4-((1-(2,2-Difluoropropyl)-7-methoxy-1H-indazol-6-yl)amino)-N-(methyl-d3)-6-((5-morpholinopyridin-2-yl)amino)nicotinamide]
[1]
  JAK1/TYK2 selectivity: 51.23
  IC50: 0.165 nM
[2]
  IC50: 8.45 nM
[3]
  IC50: > 20000 nM
[4]
  IC50: > 20000 nM
[5]
  IC50: > 20000 nM
[6]
  IC50: 14 nM
[7]
  IC50: 152 nM
[8]
  solubility kinetic at 2 h: 61.8 µM (≈ 34.3 µg/mL)

## [2H]C([2H])([2H])NC(=O)c1nnc(NC(=O)C2CC2)cc1Nc1ncc2cnn(CC(C)(F)F)c2c1OC [Example 24, 6-(Cyclopropanecarboxamido)-4-((1-(2,2-difluoropropyl)-7-methoxy-1H-pyrazolo[4,3-c]pyridin-6-yl)amino)-N-(methyl-d3)pyridazine-3-carboxamide]
[1]
  JAK1/TYK2 selectivity: 79.86
  IC50: 0.271 nM
[2]
  IC50: 21.6 nM
[3]
  IC50: > 20000 nM
[4]
  IC50: > 20000 nM
[5]
  IC50: > 20000 nM
[6]
  IC50: 8.94 nM
[9]; read-out: Human LM Clint
  microsomal CLint at 1 µM: 4.16 µL/min/mg
[9]; read-out: Human LM T½
  half-life at 1 µM: 5.55 h

## CNC(=O)c1cnc(NC(=O)C2CC2)cc1Nc1ncc2cnn(CC(C)(F)F)c2c1OC [Example 23, 6-(Cyclopropanecarboxamido)-4-((1-(2,2-difluoropropyl)-7-methoxy-1H-pyrazolo[4,3-c]pyridin-6-yl)amino)-N-methylnicotinamide]
[1]
  JAK1/TYK2 selectivity: 398.70
  IC50: 0.315 nM
[2]
  IC50: 126 nM
[3]
  IC50: > 20000 nM
[4]
  IC50: > 20000 nM
[5]
  IC50: > 20000 nM
[6]
  IC50: 17.4 nM
